One compound from publication PMC3466217, “A Novel Magnetic Nanoparticle Drug Carrier for Enhanced Cancer Chemotherapy” (PLoS ONE, 2012) can be followed below.

Data set [1] has as its system H22 cells. The data set can be described thus: Cytotoxicity in H22 cell culture (MTT assay). It counts as cell-based, mouse. The conditions noted are these: 24 hrs, concentration as DOX. The protocol:
A volume of 180 µl of H22 cells were seeded in 96-well plates (4,000 cells/well).
Control cells were cultured in medium only. Thiazolyl blue tetrazolium bromide (25 µl of 5 mg/ml) (MTT, AMRESCO Inc, Solon, OH) was added to each well and incubated for 4 hrs. The culture medium was removed from the wells and replaced with 150 µl dimethylsulfoxide (DMSO, BioTek, Winooski, VT). After shaking gently for 15 min at 25°C, the DMSO solution was transferred to centrifugation tubes and centrifuged at 2,000 rpm for 5 min. The absorbance was then measured at 570 nm with an ELx-800 Universal Microplate Reader (BioTek, Winooski, VT). […] The half-maximal inhibitory concentration (IC50; drug concentration corresponding to 50% growth inhibition) was calculated using SigmaPlot 9.0 software (Systat Software Inc., San Jose, CA) and the 4-parameter logistic function standard curve analysis for dose response.

Data set [2] in a line: DOX biodistribution in H22 tumor-bearing mice. It is filed as in vivo, BALB/c mice. The conditions noted are these: 5 mg DOX/kg, tail vein, 0.5 hr after treatment, no EMF. As to the method: The blood, main organs (heart, lung, liver, spleen, kidney), and the tumor of each mouse were harvested for quantitative analysis of the DOX biodistribution. The blood was centrifuged at 5,000 rpm for 1 min at 4°C and the supernatant was obtained by adding 180 µl methanol and 20 µl of inner standard solution (0.2 mg/ml daunorubicin solution dissolved in methanol) to a 2-ml tube containing 200 µl plasma. For the organ (heart, lung, liver, spleen, kidney) and tumor samples, the frozen tissues were weighed and homogenized at 4°C in 0.9% NaCl to a total volume of 10 ml, and centrifuged at 5,000 rpm for 1 min at 4°C to retrieve the supernatant.
A total volume of 200 µl of the plasma, or the supernatant of homogenized tissue, or the tumor samples was then mixed with 180 µl methanols and 20 µl inner standard solutions, followed by 0.4 g sodium sulfate. The mixture was homogenized by vortexing for 5 min and then incubated at 4°C for 1 hr. After the 1-hr incubation, the mixture was centrifuged at 12,000 rpm for 15 min. […] Finally, the percent-injected dose per gram tissue of the tissue and tumor samples was calculated.

Data set [3] deals with H22 hepatoma cell tumor. The data set is described as follows: Chemotherapy experiments in H22 tumor-bearing mice (tumor volume, life span, histology). The conditions noted are these: no EMF.
Description: The mouse hepatoma H22 cell line was grown in RPMI-1640 medium supplemented with 10% FBS, 100 units/ml of penicillin and 100 µg/ml of streptomycin at 37°C and 5% CO2. BALB/c mice (4- to 8-week-old males, body weight 26±5 g) were housed (one mouse per cage) under specific pathogen-free conditions, maintained on a 12-hour light-dark cycle with controlled temperature (20–24°C), and were given sterile food. The tumor-bearing mouse model was generated by subcutaneous injection of 4×10^5 H22 cells with 50 µl phosphate-buffered saline (PBS) into the shaved right flank. The treatment protocol required the mice to be anesthetized and these were anesthetized with ketamine (80 mg/kg) and xylazine (3 mg/kg), and acepromazine (2 mg/kg) via intraperitoneal injection (IP). If an additional dose was needed, ketamine alone was used.
The doses were normalized to 5 mg DOX per kg body weight when the tumor volume reached 50 to 100 mm^3 (∼10 days after tumor cell inoculation). The volume for 150 µl was injected via the tail vein and the treatment was carried out three times without interval in three weeks.
Chemotherapy experiments: H22 tumor-bearing mice (4 groups; for each group, n = 18) were used and the treatment was performed as described above. The antitumor effect was assessed by the following steps: 1) six mice were sacrificed for each group on the 24th day following treatment. The tumors were harvested and fixed in 10% formalin, embedded in paraffin and sectioned (5 µm coupes) for hematoxylin–eosin (HE) staining for microscopic examination purposes; 2) tumor sizes (4 groups; for each group, n = 12) were measured by a caliper before therapy and every three days after treatment using the following equation: tumor volume (V, mm^3) = (tumor length×tumor width)^2/2. The life span of each animal was also recorded. The relative tumor volume was calculated from V = V/V0, where V0 is the tumor volume at the beginning of treatment. The endpoints of the antitumor effect were evaluated by the degree of tumor growth inhibition and life span after treatment.

≈ marks a conversion by molar mass, not a printed value.

As to `COc1cccc2c1C(=O)c1c(O)c3c(c(O)c1C2=O)C[C@@](O)(C(=O)CO)C[C@@H]3O[C@H]1C[C@H](N)[C@H](O)[C@H](C)O1` [DOX, doxorubicin], the “IC50 (cell inhibition rate)” value in data set [1] stood at 0.530 ± 0.010 µg/mL (≈ 0.975 µM). In data set [2], the “DOX concentrations in the other organs (heart, lung and kidney)” value was “Very low concentrations”; the “percent injected dose per gram tissue in blood” value came out at 1.07%; the “percent injected dose per gram tissue in livers” value turned out to be 0.402%; the “percent injected dose per gram tissue in spleens” value was determined as 0.634%. Also, the “percent injected dose per gram tissue in tumors” value in data set [2] is listed as 0.741%. Also, in data set [3] (5 mg DOX/kg iv three times), the “life span of tumor-bearing mice” value was 31.3 ± 3.31 days. In data set [3] (24th day following treatment), the “tumor histology (HE staining)” value is recorded as “A few necrotic cells were observed”. Besides, the “relative tumor volume (V/V0)” value in data set [3] (21 days after start of treatment, 5 mg DOX/kg iv three times) is recorded as 7.08±1.68. In data set [3] (following treatment for 33 days), the “survival rate of tumor-bearing mice” value is reported as 33.3%.
